Experimental data: US9884868B2, “TGF-beta inhibitors” (Rigel Pharmaceuticals, Inc., priority 2015, dated 2018)

These compounds were tested against HIS-TGF-βR1 T204D (Homo sapiens (Human), UniProt P36897, T204D) (assay: HTRF probe displacement assay with HIS-TGF-βR1 T204D). Details: not given.
Chain of HIS-TGF-βR1 T204D (P36897 34-503 T204D): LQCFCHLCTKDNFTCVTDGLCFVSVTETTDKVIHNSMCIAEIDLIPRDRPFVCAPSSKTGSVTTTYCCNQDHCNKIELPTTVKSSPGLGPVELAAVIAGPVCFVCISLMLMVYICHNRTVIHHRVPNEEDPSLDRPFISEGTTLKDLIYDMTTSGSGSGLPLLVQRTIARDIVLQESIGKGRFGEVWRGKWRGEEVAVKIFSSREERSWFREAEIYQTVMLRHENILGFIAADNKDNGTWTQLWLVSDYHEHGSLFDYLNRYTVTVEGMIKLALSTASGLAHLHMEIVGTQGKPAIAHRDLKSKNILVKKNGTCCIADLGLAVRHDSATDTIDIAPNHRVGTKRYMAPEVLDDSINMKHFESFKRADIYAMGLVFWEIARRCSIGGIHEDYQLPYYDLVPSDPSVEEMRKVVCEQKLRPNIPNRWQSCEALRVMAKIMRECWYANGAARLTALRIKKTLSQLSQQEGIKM

Row | IC50 | Structure (SMILES)
1 | 8.1 nM | N#Cc1cnc2ccc(-c3c(-c4ccc(F)cc4F)ncn3CC(F)F)cn12 [227′, 6-(1-(2,2-difluoroethyl)-4-(2,4-difluorophenyl)-1H-imidazol-5-yl)imidazo[1,2-a]pyridine-3-carbonitrile]

Same assay, conditions: read-out: TGFbr1 IC50; HTRF probe displacement, 1 nM HIS-TGF-βR1 T204D, 1 hour at room temperature

Row | Structure (SMILES) | IC50
2 | CC1(Cn2cnc(-c3ccc(F)c(Cl)c3)c2-c2ccc3ncc(C#N)n3n2)COC1 [45′, 6-(4-(3-chloro-4-fluorophenyl)-1-((3-methyloxetan-3-yl)methyl)-1H-imidazol-5-yl)imidazo[1,2-b]pyridazine-3-carbonitrile] | 2.3 nM
3 | N#Cc1cnc2ccc(-c3c(-c4ccc(F)c(Cl)c4)ncn3CC(F)F)nn12 [33′, 6-(4-(3-chloro-4-fluorophenyl)-1-(2,2-difluoroethyl)-1H-imidazol-5-yl)imidazo[1,2-b]pyridazine-3-carbonitrile] | 1 nM
4 | CCn1cnc(-c2ccc(F)c(Cl)c2)c1-c1ccc2ncc(C(N)=O)n2c1 [119′, 6-(4-(3-chloro-4-fluorophenyl)-1-ethyl-1H-imidazol-5-yl)imidazo[1,2-a]pyridine-3-carboxamide] | 0.4 nM
5 | CC(C)(F)Cn1cnc(-c2ccc(F)c(Cl)c2)c1-c1ccc2ncc(C#N)n2n1 [57′, 6-(4-(3-chloro-4-fluorophenyl)-1-(2-fluoro-2-methylpropyl)-1H-imidazol-5-yl)imidazo[1,2-b]pyridazine-3-carbonitrile] | 1.5 nM
6 | N#Cc1cnc2ccc(-c3c(-c4ccc(F)c(Cl)c4)ncn3CC3CC3)cn12 [96′, 6-(4-(3-chloro-4-fluorophenyl)-1-(cyclopropylmethyl)-1H-imidazol-5-yl)imidazo[1,2-a]pyridine-3-carbonitrile] | 94.4 nM
7 | NC(=O)c1cnc2ccc(-c3c(-c4ccc(F)c(Cl)c4)ncn3C[C@@H]3CCCO3)nn12 [145′, (S)-6-(4-(3-chloro-4-fluorophenyl)-1-((tetrahydrofuran-2-yl)methyl)-1H-imidazol-5-yl)imidazo[1,2-b]pyridazine-3-carboxamide] | 2.2 nM
8 | N#Cc1cnc2ccc(-c3c(-c4ccc(F)cc4)ncn3C3CC3)nn12 [7′, 6-(1-cyclopropyl-4-(4-fluorophenyl)-1H-imidazol-5-yl)imidazo[1,2-b]pyridazine-3-carbonitrile] | 2.4 nM
9 | CC(C)(F)Cn1cnc(-c2ccc(F)cc2)c1-c1ccc2ncc(C#N)n2n1 [23′, 6-(1-(2-fluoro-2-methylpropyl)-4-(4-fluorophenyl)-1H-imidazol-5-yl)imidazo[1,2-b]pyridazine-3-carbonitrile] | 1.9 nM
10 | NC(=O)c1cnc2ccc(-c3c(-c4ccc(F)cc4)ncn3CCCO)nn12 [132′, 6-(4-(4-fluorophenyl)-1-(3-hydroxypropyl)-1H-imidazol-5-yl)imidazo[1,2-b]pyridazine-3-carboxamide] | 4.7 nM
11 | CC(C)n1cnc(-c2ccc(F)cc2)c1-c1ccc2ncc(C(N)=O)n2n1 [135′, 6-(4-(4-fluorophenyl)-1-isopropyl-1H-imidazol-5-yl)imidazo[1,2-b]pyridazine-3-carboxamide] | 0.7 nM
12 | C[C@@H](O)Cn1cnc(-c2ccc(F)cc2)c1-c1ccc2ncc(C#N)n2c1 [68′, (R)-6-(4-(4-fluorophenyl)-1-(2-hydroxypropyl)-1H-imidazol-5-yl)imidazo[1,2-a]pyridine-3-carbonitrile] | 301 nM
13 | CCC(CC)n1cnc(-c2ccc(F)cc2)c1-c1ccc2ncc(C#N)n2c1 [74′, 6-(4-(4-fluorophenyl)-1-(pentan-3-yl)-1H-imidazol-5-yl)imidazo[1,2-c]pyridine-3-carbonitrile] | 152 nM
14 | CC(C)(O)CCn1cnc(-c2ccc(F)c(Cl)c2)c1-c1ccc2ncc(C#N)n2n1 [37′, 6-(4-(3-chloro-4-fluorophenyl)-1-(3-hydroxy-3-methylbutyl)-1H-imidazol-5-yl)imidazo[1,2-b]pyridazine-3-carbonitrile] | 2.5 nM
15 | NC(=O)c1cnc2ccc(-c3c(-c4ccc(F)cc4)ncn3CCO)nn12 [133′, 6-(4-(4-fluorophenyl)-1-(2-hydroxyethyl)-1H-imidazol-5-yl)imidazo[1,2-b]pyridazine-3-carboxamide] | 3.1 nM
16 | N#Cc1cnc2ccc(-c3c(-c4ccc(F)c(Cl)c4)ncn3CCCF)cn12 [101′, 6-(4-(3-chloro-4-fluorophenyl)-1-(3-fluoropropyl)-1H-imidazol-5-yl)imidazo[1,2-a]pyridine-3-carbonitrile] | 23.2 nM
17 | CC(C)C(C)n1cnc(-c2ccc(F)cc2)c1-c1ccc2ncc(C#N)n2c1 (centres unmarked) [76′, 6-(4-(4-fluorophenyl)-1-(3-methylbutan-2-yl)-1H-imidazol-5-yl)imidazo[1,2-a]pyridine-3-carbonitrile] | 999 nM
18 | CC(O)CCn1cnc(-c2ccc(F)cc2)c1-c1ccc2ncc(C#N)n2c1 (centres unmarked) [69′, 6-(4-(4-fluorophenyl)-1-(3-hydroxybutyl)-1H-imidazol-5-yl)imidazo[1,2-a]pyridine-3-carbonitrile] | 151 nM
19 | NC(=O)c1cnc2ccc(-c3c(-c4ccc(F)cc4)ncn3C3COC3)nn12 [126′, 6-(4-(4-fluorophenyl)-1-(oxetan-3-yl)-1H-imidazol-5-yl)imidazo[1,2-b]pyridazine-3-carboxamide] | 7.4 nM
20 | CCOCCn1cnc(-c2ccc(F)cc2)c1-c1ccc2ncc(C#N)n2c1 [91′, 6-(1-(2-ethoxyethyl)-4-(4-fluorophenyl)-1H-imidazol-5-yl)imidazo[1,2-a]pyridine-3-carbonitrile] | 18.8 nM
21 | N#Cc1cnc2ccc(-c3c(-c4ccc(F)c(Cl)c4)ncn3C34CC(C3)C4)nn12 [59′, 6-(1-(bicyclo[1.1.1]pentan-1-yl)-4-(3-chloro-4-fluorophenyl)-1H-imidazol-5-yl)imidazo[1,2-b]pyridazine-3-carbonitrile] | 1.1 nM

Next, values leading:

Row | IC50 | Structure (SMILES)
22 | 5.5 nM | C[C@@H](O)Cn1cnc(-c2ccc(F)cc2)c1-c1ccc2ncc(C(N)=O)n2c1 [155′, (R)-6-(4-(4-fluorophenyl)-1-(2-hydroxypropyl)-1H-imidazol-5-yl)imidazo[1,2-a]pyridine-3-carboxamide]
23 | 7.9 nM | N#Cc1cc(-c2ncn(CC(F)F)c2-c2ccc3ncc(C#N)n3n2)ccc1F [266′, 6-(4-(3-cyano-4-fluorophenyl)-1-(2,2-difluoroethyl)-1H-imidazol-5-yl)imidazo[1,2-b]pyridazine-3-carbonitrile]
24 | 43.3 nM | CN1CCn2c(nc(-c3ccc(F)cc3)c2-c2ccc3ncc(C(N)=O)n3c2)C1 [Example 293′, 6-(2-(4-fluorophenyl)-7-methyl-5,6,7,8-tetrahydroimidazo[1,2-a]pyrazin-3-yl)imidazo[1,2-a]pyridine-3-carboxamide]
25 | 14.3 nM | N#Cc1cnc2ccc(-c3c(-c4cccc(N)c4)ncn3CC(F)F)nn12 [240′, 6-(4-(3-aminophenyl)-1-(2,2-difluoroethyl)-1H-imidazol-5-yl)imidazo[1,2-b]pyridazine-3-carbonitrile]
26 | 4.9 nM | NC(=O)c1cnc2ccc(-c3c(-c4ccc(F)cc4)ncn3CCCO)cn12 [165′, 6-(4-(4-fluorophenyl)-1-(3-hydroxypropyl)-1H-imidazol-5-yl)imidazo[1,2-a]pyridine-3-carboxamide]
27 | 21.6 nM | FCCCn1cnc(-c2ccc(F)c(Cl)c2)c1-c1ccc2nccn2c1 [183′, 6-(4-(3-chloro-4-fluorophenyl)-1-(3-fluoropropyl)-1H-imidazol-5-yl)imidazo[1,2-a]pyridine]
28 | 1.8 nM | NC(=O)c1cnc2ccc(-c3c(-c4ccc(F)c(F)c4)ncn3CC(F)F)cn12 [232′, 6-(1-(2,2-difluoroethyl)-4-(3,4-difluorophenyl)-1H-imidazol-5-yl)imidazo[1,2-a]pyridine-3-carboxamide]
29 | 1.1 nM | CC(O)c1cnc2ccc(-c3c(-c4ccc(F)cc4)ncn3CC(F)F)nn12 (centres unmarked) [Example 214′, 1-(6-(1-(2,2-difluoroethyl)-4-(4-fluorophenyl)-1H-imidazol-5-yl)imidazo[1,2-b]pyridazin-3-yl)ethanol]
30 | 3.2 nM | OCCc1cnc2ccc(-c3c(-c4ccc(F)cc4)ncn3CC(F)F)nn12 [Example 217′, 2-(6-(1-(2,2-difluoroethyl)-4-(4-fluorophenyl)-1H-imidazol-5-yl)imidazo[1,2-b]pyridazin-3-yl)ethanol]
31 | 1.7 nM | NC(=O)c1cnc2ccc(-c3c(-c4ccc(F)cc4)ncn3CC(F)F)cn12 [230′, 6-(1-(2,2-difluoroethyl)-4-(4-fluorophenyl)-1H-imidazol-5-yl)imidazo[1,2-a]pyridine-3-carboxamide]
32 | 0.9 nM | N#Cc1cnc2ccc(-c3c(-c4ccc(F)c(Cl)c4)ncn3[C@H]3C[C@@H](O)C3)nn12 [Example 39′, 6-(4-(3-chloro-4-fluorophenyl)-1-((cis)-3-hydroxycyclobutyl)-1H-imidazol-5-yl)imidazo[1,2-b]pyridazine-3-carbonitrile]
33 | 2 nM | CC(CO)n1cnc(-c2ccc(F)cc2)c1-c1ccc2ncc(C(N)=O)n2c1 (centres unmarked) [175′, 6-(4-(4-fluorophenyl)-1-(1-hydroxypropan-2-yl)-1H-imidazol-5-yl)imidazo[1,2-a]pyridine-3-carboxamide]
34 | 5 nM | COc1ccc(-c2ncn(CC(F)F)c2-c2ccc3ncc(C#N)n3n2)cc1 [242′, 6-(1-(2,2-difluoroethyl)-4-(4-methoxyphenyl)-1H-imidazol-5-yl)imidazo[1,2-b]pyridazine-3-carbonitrile]
35 | 1.1 nM | CC(C)Cn1cnc(-c2ccc(F)cc2)c1-c1ccc2ncc(C(N)=O)n2c1 [168′, 6-(4-(4-fluorophenyl)-1-isobutyl-1H-imidazol-5-yl)imidazo[1,2-a]pyridine-3-carboxamide]
36 | 6.7 nM | NC(=O)c1cnc2ccc(-c3c(-c4ccc(F)cc4)ncn3C[C@H](O)CO)cn12 [161′, (S)-6-(1-(2,3-dihydroxypropyl)-4-(4-fluorophenyl)-1H-imidazol-5-yl)imidazo[1,2-a]pyridine-3-carboxamide]
37 | 184 nM | CC(C)(O)c1cnc2ccc(-c3c(-c4ccc(F)cc4)ncn3CC(F)F)cn12 [Example 278′]
38 | 4.3 nM | CC(O)CCn1cnc(-c2ccc(F)cc2)c1-c1ccc2ncc(C(N)=O)n2c1 (centres unmarked) [156′, 6-(4-(4-fluorophenyl)-1-(3-hydroxybutyl)-1H-imidazol-5-yl)imidazo[1,2-a]pyridine-3-carboxamide]
